Measured values taken from paper PMC7034129, “C-2 phenyl replacements to obtain potent quinoline-based Staphylococcus aureus NorA inhibitors” (Journal of Enzyme Inhibition and Medicinal Chemistry, 2020).
Read-outs that look alike come from different tables or passages of the source. Marks after values point to notes of the source that are not given here. One block for each compound: values may come before it.

Tests used:
SA-1199B [1] = test: Membrane potential (polarisation) assays, BacLight kit, DiOC2(3); type: cell-based, Staphylococcus aureus; details: 30 min; for depolarised S. aureus membrane: 10 µg/mL
Method: Membrane potential assays were carried out by measuring the effect of 1 and 37a on the membrane potential using the BacLight Bacterial Membrane Potential Kit (Molecular Probes, Life Technologies) according to the manufacturer’s instructions. Briefly, SA-1199B was grown in MHB at 37 °C until reaching an OD600 of 0.6. Bacterial cells were then washed in PBS and diluted to 1 × 10^6 CFU/mL with filtered PBS (filter 0.22 µm) in flow cytometry tubes. Ten microliters of 3 mM 3,3-diethyloxacarbocyanine iodide (DiOC2(3) in DMSO) was added to each tube (final concentration 30 µM) and mixed. Then, 1 or 37a from a stock solution in DMSO (10 mg/mL) was added to reach final concentrations of 1, 5, and 10 µg/mL. As positive control, 10 µL of 500 µM carbonyl cyanide m-chlorophenylhydrazone (CCCP, final concentration 5 µM) was used to eradicate the proton gradient by eliminating the membrane potential. The samples were analysed after 30 min by measuring the fluorescence using a cytometer Attune NxT (ThermoFisher Scientific) with a laser emitting at 488 nm and collecting in the green and red channels. The red to green fluorescence ratio was determined and normalised against the emission from the DiOC2(3) blank tube having 1 ml of the bacterial suspension and a final concentration of DiOC2(3) of 30 µM. The results are presented as the percentage of depolarised membranes compared with the drug-free control.
Since efflux pumps need a proton gradient along the bacterial membrane, its modification/disruption can lead to an efflux inhibition. However, this effect cannot be related to a specific EPI activity; on the contrary, it relies on a non-specific interruption of the energy source (protons) that efflux pumps use to extrude their substrates by an antiport mechanism. A typical example of a compound inhibiting efflux pumps activity by this non-specific mechanism is represented by carbonyl cyanide m-chlorophenyl hydrazone (CCCP). […] Membrane polarisation was assessed by cytofluorimeter analysis using the fluorescent probe 3,3-diethyloxacarbocyanine iodide (DiOC2(3)) as its distribution is proton gradient-sensitive.

S. aureus SA-1199B = type: cell-based, Staphylococcus aureus; details: for compound concentration reducing the CPX MIC by 4-fold: chequerboard with CPX; for synergistic effect with CPX: compound concentration below 25 µg/mL
Method: (§1) MICs assays were performed using broth microdilution method in 96 wells-microtiter plates, following the CLSI guidelines.
(§2) Chequerboard assays and time-kill curves were performed as previously described.

[2] = tested on: human leukemic monocyte cell line (THP-1); test: Cell viability assay (ATP bioluminescence); details: ratio between CC50 (THP-1) and minimum EPI concentration able to reduce by 4-fold CPX MIC
Method: (§3) THP-1 cells were grown in RPMI 1640 supplemented with 10% heat-inactivated foetal calf serum, 10,000 units of penicillin, and 10 µg of streptomycin/mL overnight to confluence. […] Cell viability was then evaluated using an ATP bioluminescence kit (Via Light kit; Cambrex). Results are expressed as 50% cytotoxic concentration (CC50). The CC50 was defined as the concentration required to reduce the cell number by 50% compared to that for the untreated controls. Each concentration was tested in triplicate.

[3] = tested on: human leukemic monocyte cell line (THP-1); parameters: method as in PMID 30067360; details: THP-1 cells; cited from earlier work
SA-1199B [4] = tested on: SA-1199B; parameters: method as in PMID 30067360; details: as previously reported; cited from earlier work
[5] = parameters: method as in PMID 30067360; details: in silico and in vitro, mouse liver microsomes 2 h; cited from earlier work
[6] = tested on: S. aureus strain SA-1199B (norA+/GrlA mutation); test: Synergistic assays: compounds at 25 µg/mL with scalar concentrations of CPX; type: cell-based, Staphylococcus aureus; details: compound at 25 µg/mL
Method: as §1
(data not shown). […] Worthy of note, among the five active compounds, three were thiophene derivatives (35b, 36b and 37a) displaying their activity regardless of the position of the sulphur atom on the thiophene ring.

[7] = tested on: S. aureus strain SA-1199 (norA wild-type); test: Synergistic assay with CPX against norA wild-type strain; type: cell-based, Staphylococcus aureus; details: compound at 25 µg/mL, scalar CPX
Method: as §1

SA-1199B [8] = test: MIC evaluation of compound alone (broth microdilution); type: cell-based; details: Staphylococcus aureus, read-out: antibacterial activity alone (MIC)
Method: as §1
The sum of both FIC values led to a FIC index (FICI) < 0.27 showing a significant synergistic effect as widely recognised for FICI values <0.5[40].

NorA efflux pump = biological target: T1, NorA efflux pump (Staphylococcus aureus, UniProt P0A0J7); test: EtBr efflux assays; type: cell-based; details: read-out: EtBr efflux inhibition
T1 construct: monitoring bacterial fluorescence of SA-1199B, overexpressing norA gene; endogenous in cells; host or cells: Staphylococcus aureus SA-1199B (norA+/GrlA mutation)
Method: The loss of EtBr from S. aureus SA-1199B was determined fluorometrically as previously described. The effect of various concentrations of tested compounds on the EtBr efflux of SA-1199B was compared to that in their absence, allowing the calculation of the percentage reduction in efflux.
Since EtBr is a known NorA substrate resulting fluorescent only when inside bacterial cells, monitoring bacterial fluorescence of SA-1199B, overexpressing norA gene, through a fluorimeter is a fast method to indirectly evaluate NorA inhibition. […] Indeed, we commonly consider as active NorA EPIs those compounds having an EtBr efflux inhibition ≥70%[17]^,[18].

SA-1199B [9] = test: Time-kill curves in combination with CPX; type: cell-based, Staphylococcus aureus; details: 24 h
Method: as §2

Haemolysis assays = type: cell-based
Method: Haemolysis assays were performed as previously described.
In order to evaluate the toxic effects of the derivative 37a, haemolysis assays were performed at scalar compound concentrations in comparison with the starting hit 1 (Figure 4).

[10] = Cell viability assay (ATP bioluminescence); details: human
Method: as §3

melting point: 84 to 86 °C
SMILES: CCN(CC)CCOc1cc(-c2cccs2)nc2ccccc12

melting point: 66 to 67 °C
SMILES: CCN(CC)CCOc1cc(-c2ccsc2)nc2ccccc12

melting point: 99 to 101 °C
SMILES: Clc1ccc(-c2cc(OCCN3CCCCC3)c3ccccc3n2)s1

SMILES: CCCOc1ccc(-c2cc(OCCN(CC)CC)c3ccccc3n2)cc1 [Compound 1, reference compound]
depolarised bacterial membrane (SA-1199B [1]; 1 µg/mL): retained a significant depolarising effect
depolarised bacterial membrane (SA-1199B [1]; 5 µg/mL): retained a significant depolarising effect
depolarised S. aureus membrane (SA-1199B [1]): > 50%

SMILES: CCCOc1ccc(-c2cc(OCCN3CCCCC3)c3cc(OC)ccc3n2)cc1 [Compound 2]
CPX MIC reduction (S. aureus SA-1199B; compound at 0.39 µg/mL): 2 fold
SI, selectivity index [2]: >128
CC50 [3]: >100^b µg/mL
depolarised bacterial membrane (SA-1199B [4]): about 20%
metabolic stability [5]: good metabolic stability

SMILES: CCCOc1ccc(-c2cc(OCCN(CC)CC)c3ccccc3n2)nc1.Cl [Compound 30a, N,N-diethyl-2-{[2–(5-propoxypyridin-2-yl)quinolin-4-yl]oxy}ethanamine hydrochloride]
reduction of the CPX MIC [6]: 4 fold
compound concentration reducing the CPX MIC by 4-fold (S. aureus SA-1199B): 6.25 µg/mL
melting point: 212 to 213 °C

SMILES: CCCOc1ccc(-c2cc(OCCN3CCCCC3)c3ccccc3n2)nc1 [Compound 30b, 4–(2-Piperidin-1-ylethoxy)-2–(5-propoxypyridin-2-yl)quinoline]
reduction of the CPX MIC [6]: 4 fold
compound concentration reducing the CPX MIC by 4-fold (S. aureus SA-1199B): 12.5 µg/mL
melting point: 90 to 91 °C

SMILES: CCCOc1ccc(-c2cc(OCCN(CC)CC)c3ccccc3n2)cn1.Cl [Compound 31a, N,N-diethyl-2-{[2–(6-propoxypyridin-3-yl)quinolin-4-yl]oxy}ethanamine hydrochloride]
synergistic effect / EPI activity with CPX [6]: lost EPI activity
melting point: 188 to 190 °C

SMILES: CCCOc1ccc(-c2cc(OCCN3CCCCC3)c3ccccc3n2)cn1.Cl [Compound 31b, 4–(2-Piperidin-1-ylethoxy)-2–(6-propoxypyridin-3-yl)quinoline hydrochloride]
synergistic effect / EPI activity with CPX [6]: lost EPI activity
melting point: 223 to 224 °C

SMILES: CCN(CC)CCOc1cc(-c2ccccn2)nc2ccccc12.Cl [Compound 32a, N,N-diethyl-2-[(2-pyridin-2-ylquinolin-4-yl)oxy]ethanamine hydrochloride]
synergistic effect / EPI activity with CPX [6]: lost EPI activity
melting point: 173 to 174 °C

SMILES: c1ccc(-c2cc(OCCN3CCCCC3)c3ccccc3n2)nc1 [Compound 32b, 4–(2-Piperidin-1-ylethoxy)-2-pyridin-2-ylquinoline]
synergistic effect / EPI activity with CPX [6]: lost EPI activity
melting point: 77 to 79.5 °C

SMILES: CCN(CC)CCOc1cc(-c2cccnc2)nc2ccccc12.Cl [Compound 33a, N,N-diethyl-2-[(2-pyridin-3-ylquinolin-4-yl)oxy]ethanamine hydrochloride]
synergistic effect / EPI activity with CPX [6]: lost EPI activity
melting point: 181 to 182 °C

SMILES: c1cncc(-c2cc(OCCN3CCCCC3)c3ccccc3n2)c1 [Compound 33b, 4–(2-Piperidin-1-ylethoxy)-2-pyridin-3-ylquinoline]
synergistic effect / EPI activity with CPX [6]: lost EPI activity
melting point: 101.5 to 102.5 °C

SMILES: CCN(CC)CCOc1cc(-c2ccncc2)nc2ccccc12 [Compound 34a, N,N-diethyl-2-[(2-pyridin-4-ylquinolin-4-yl)oxy]ethanamine]
synergistic effect / EPI activity with CPX [6]: lost EPI activity
melting point: 73.5 to 74 °C

SMILES: Cl.c1ccc2c(OCCN3CCCCC3)cc(-c3ccncc3)nc2c1 [Compound 34b, 4–(2-Piperidin-1-ylethoxy)-2-pyridin-4-ylquinoline hydrochloride]
synergistic effect / EPI activity with CPX [6]: lost EPI activity
melting point: 183.5 to 185 °C

SMILES: Cl.c1csc(-c2cc(OCCN3CCCCC3)c3ccccc3n2)c1 [Compound 35b, 4–(2-piperidin-1-ylethoxy)-2–(2-thienyl)quinoline hydrochloride]
reduction of the CPX MIC [6]: 4 fold
synergistic effect with CPX (S. aureus SA-1199B): did not retain any synergistic effect
melting point: 208 to 209.5 °C

SMILES: c1ccc2c(OCCN3CCCCC3)cc(-c3ccsc3)nc2c1 [Compound 36b, 4–(2-Piperidin-1-ylethoxy)-2–(3-thienyl)quinoline]
reduction of the CPX MIC [6]: 4 fold
synergistic effect with CPX (S. aureus SA-1199B): did not retain any synergistic effect
melting point: 109.5 to 111 °C

SMILES: CCN(CC)CCOc1cc(-c2ccc(Cl)s2)nc2ccccc12.Cl [Compound 37a, (2-{[2–(5-Chloro-2-thienyl)quinolin-4-yl]oxy}ethyl)diethylamine hydrochloride]
reduction of the CPX MIC [6]: 32 fold
concentration reducing CPX MIC, fold lower than own MIC (S. aureus SA-1199B): ≥ 64 fold
FIC (MIC in combination/MIC alone) (S. aureus SA-1199B; 37a + CPX): < 0.0156
FIC index (FICI) (S. aureus SA-1199B; 37a + CPX): < 0.27
compound concentration reducing the CPX MIC by 4-fold (S. aureus SA-1199B): 0.39 µg/mL
CPX MIC in combination with compound (S. aureus SA-1199B; with 37a): 2.5 µg/mL
synergistic effect with CPX [7]: did not exhibit any significant synergistic effect
MIC (SA-1199B [8]): > 25 µg/mL
inhibition at 50 µM (NorA efflux pump): 74.3 ± 3.5%
bactericidal activity of combination (time-kill) (SA-1199B [9]; 37a at 3.13 and 6.25 µg/mL + CPX at its MIC): strongly significant and definitely higher bactericidal activity than that shown by CPX alone
bactericidal effect of combination (time-kill) (SA-1199B [9]; 37a at 3.13 and 6.25 µg/mL + CPX at ¼ MIC): the same bactericidal effect as CPX tested at its MIC
haemolytic effect (Haemolysis assays; 20 µg/mL): about 10%
haemolytic effect relative to starting hit 1 (Haemolysis assays; 20 µg/mL): 3 fold
haemolytic activity (Haemolysis assays; concentrations ≤ 5 µg/mL): below 2%
CC50 at 24 h [10]: 6.33 µg/mL
SI, selectivity index [2]: 16.2
depolarised bacterial membrane (SA-1199B [1]; 1 µg/mL): about 20%
depolarised bacterial membrane (SA-1199B [1]; 5 µg/mL): about 20%
depolarised S. aureus membrane (SA-1199B [1]): > 50%
melting point: 189 to 191 °C
